Experimental data: patent publication US20220275461A1, “DIAGNOSTICS AND METHODS FOR PROGNOSING RESPONSE TO IMMUNOTHERAPY BASED ON THE METHYLATION STATUS OF IMMUNE SYNAPSE GENE SIGNATURE” (H. LEE MOFFITT CANCER CENTER AND RESEARCH INSTITUTE, INC., priority 2019, published 2022)

Key:
[1] = test system: epithelial cancer cell lines; test: PC1 scores of mock- or 5-azacitidine-treated cancer cell lines (GSE57342 dataset); assay type: cell-based; conditions: 26 epithelial cancer cell lines, mock- vs 5-azacitidine-treated; FIG. 18E
Text: The GSE57342 processed dataset was downloaded and cell lines with more than three Mock- and three 5-azacitidine-treated samples was selected for analysis.
We used the first and second principal component (a weighted average β-values among the CSG and ICG probes), as they account for the largest variability in the data, to represent the overall methylation status for 8,931 tumor and normal samples in the TCGA database. That is, PC=Σwixi, a weighted average β-values among the selected CSG and ICG probes, where xi represents gene i β-value, wi is the corresponding weight (loading coefficient) with Σwi^2=1, and the wi values maximize the variance of Σwixi. For each gene, a set of probes were selected using the following criteria to minimize noise, r<−0.2 (methylation vs gene expression) located in the TSS1500, TSS200 or the 5′UTR (Table 4). Each probe was centered but not scaled before PCA calculations.

[2] = test system: CD40 gene in CAMA1 cell line; conditions: mock- vs azacytidine-treated, FIG. 18F; cited from earlier work

Nc1ncn([C@@H]2O[C@H](CO)[C@@H](O)[C@H]2O)c(=O)n1 [5-azacytidine]
PC1 score (hypermethylation of CSGs) [1]: significant decrease in PC1 scores | methylation status of CD40 gene [2]: demethylation of CD40
